From the supplement of paper PMC10307832

Key:
Test in all cases: relative viability (nuclei count vs DMSO), 5 days (fraction); higher = more cells survive
[1] = compound: C1/C(=C\C2=CC=CS2)/C(=O)/C(=C/C3=CC=CS3)/C1 + Cc1nc(Nc2ncc(C(=O)Nc3c(C)cccc3Cl)s2)cc(N2CCN(CCO)CC2)n1 [Dasatinib] (partner 0.075 µM)
How it was run: (§1)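 One day after seeding in 1536-well plates, lung cancer cell lines were dosed by pin tool. Dosing was either single-drug or a fixed anchor-drug dose plus five library-drug doses (not always all listed) in √10 steps. After 5 days, nuclei were stained in one fix-and-stain step and counted on 4× images, and relative viability is the nuclei count of treated wells over that of vehicle wells, given as the median of duplicate plates.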

[2] = compound: C1=CC(=CC=C1C2=CC(=C(S2)NC(=O)N)C(=O)N)F [TPCA-1] + Cc1nc(Nc2ncc(C(=O)Nc3c(C)cccc3Cl)s2)cc(N2CCN(CCO)CC2)n1 [Dasatinib] (partner 0.075 µM)
How it was run: as §1

[3] = compound: C[C@]12O[C@H](C[C@]1(O)CO)n1c3ccccc3c3c4c(c5c6ccccc6n2c5c31)CNC4=O [Lestaurtinib] + CS(=O)(=O)CCNCc1ccc(-c2ccc3ncnc(Nc4ccc(OCc5cccc(F)c5)c(Cl)c4)c3c2)o1 [Lapatinib] (partner 2 µM)
How it was run: as §1

[4] = compound: C[C@]12O[C@H](C[C@]1(O)CO)n1c3ccccc3c3c4c(c5c6ccccc6n2c5c31)CNC4=O [Lestaurtinib] + N=C(N)NC(=N)NCCc1ccccc1 [Phenformin] (partner 250 µM)
How it was run: as §1

Cell Line	relative viability ([1]; first compound 0.2 µM)	relative viability ([1]; first compound 0.6325 µM)	relative viability ([1]; first compound 2 µM)	relative viability ([1]; first compound 6.325 µM)	relative viability ([1]; first compound 20 µM)	relative viability ([2]; first compound 0.04 µM)	relative viability ([2]; first compound 0.1265 µM)	relative viability ([2]; first compound 0.4 µM)	relative viability ([2]; first compound 1.265 µM)	relative viability ([2]; first compound 4 µM)	relative viability ([3]; first compound 0.005 µM)	relative viability ([3]; first compound 0.01581 µM)	relative viability ([3]; first compound 0.05 µM)	relative viability ([3]; first compound 0.1581 µM)	relative viability ([3]; first compound 0.5 µM)	relative viability ([4]; first compound 0.005 µM)	relative viability ([4]; first compound 0.01581 µM)	relative viability ([4]; first compound 0.05 µM)	relative viability ([4]; first compound 0.1581 µM)	relative viability ([4]; first compound 0.5 µM)
201T	0.633	0.523	0.529	0.493	0.612	0.577	0.601	0.569	0.576	0.556	1.05	1.08	1.04	1.2	0.961	0.467	0.491	0.363	0.418	0.278
PC-14	0.32	0.264	0.285	0.241	0.222	0.324	0.245	0.283	0.144	0.0724	0.437	0.378	0.325	0.286	0.31	0.445	0.871	0.633	0.353	0.106
NCI-H1650	0.313	0.3	0.341	0.306	0.316	0.361		0.336	0.269	0.269	0.987	0.95	0.817	0.512	0.157	0.419	0.511	0.424	0.373	0.151
NCI-H727	0.333	0.49	0.447	0.449	0.387	0.425	0.364	0.48	0.361	0.37	1.21	0.986	0.78	0.813	0.263	0.475	0.655	0.648	0.515	0.298
NCI-H1792	0.774	0.613	0.968	0.758	0.752	0.8	0.715	0.765	0.678	0.624	0.779	1.05	0.56	0.653	0.244		0.423	0.3	0.179	0.178
COR-L23	0.571	0.48	0.571	0.429	0.492	0.532	0.434	0.54	0.422	0.42	1.08	1.24		0.623	0.271	0.527	0.551	0.256	0.327	0.14
HOP-62	0.678	0.683	0.729	0.651	0.61	0.874	0.642	0.689	0.539	0.671	0.889	1.17	1.02	1.08	0.93	0.637	0.768	0.485	0.613	0.274
NCI-H1915	0.337	0.335	0.328	0.202	0.321	0.322	0.292	0.33	0.263	0.243	0.971	1.12	0.922	0.82	0.294	0.349	0.37	0.311	0.34	0.204
BEN	0.325	0.38	0.316	0.35	0.298	0.294	0.283	0.335	0.391	0.267	0.743	0.959	0.586	0.408	0.255	0.292	0.316	0.267	0.237	0.196
NCI-H1437	0.408	0.446	0.561	0.412	0.378	0.462	0.368	0.565	0.408	0.325	0.775	0.866	0.529	0.414	0.114	0.343	0.349	0.241	0.292	0.16
EMC-BAC-2	0.359	0.372	0.366	0.306	0.431	0.364	0.352	0.368	0.46	0.343	0.921	0.968	0.865	0.669	0.309	0.476	0.567	0.424	0.364	0.26
NCI-H647	0.214	0.145	0.19	0.211	0.16	0.21	0.15	0.231	0.0911	0.079	0.837	0.735	0.217	0.146	0.114	0.354	0.444	0.181	0.11	0.104
LXF-289	0.241	0.178	0.251	0.154	0.203	0.24	0.225	0.267	0.134	0.104	0.867	0.917	0.713	0.769	0.375	0.515	0.498	0.42	0.302	0.213
LOU-NH91	0.559	0.582	0.585	0.514	0.531	0.558	0.558	0.38	0.43	0.52	0.768	0.721	0.638	0.562	0.404	0.677	0.722	0.647	0.506	0.362
NCI-H23	0.742	0.832	1.07	0.804	0.692	1.04	0.711	0.879	0.758	0.402	1.21	1.19	0.776	0.888	0.212	0.835	0.756	0.762	0.813	0.457
NCI-H1993	0.545	0.48	0.616	0.457	0.649	0.564	0.54	0.617	0.522	0.537	0.805	0.848	0.678	0.595	0.602	0.559	0.547	0.527	0.457	0.486
HCC-827	0.405	0.366	0.31	0.265	0.31	0.299	0.199	0.391	0.293	0.155	0.201	0.197	0.212	0.188	0.192	0.359	0.44	0.36	0.316	0.265
NCI-H650	0.462	0.416	0.569	0.446	0.444	0.464	0.436	0.409	0.321	0.332	0.732	1.22	0.455	0.421	0.26	0.427	0.415	0.362	0.265	0.314
CAL-12T	0.513	0.504	0.566	0.341	0.48	0.361	0.486	0.571	0.304	0.154	0.671	0.649	0.537	0.384	0.246	0.488	0.622	0.375	0.32	0.189
NCI-H838	0.278	0.268	0.274	0.276	0.284	0.378	0.259	0.266	0.247	0.259	1.04	0.998	0.664	0.451	0.132	0.508	0.543	0.475	0.227	0.131
NCI-H2228	0.638	0.479	0.535	0.408	0.531	0.669	0.491	0.521	0.386	0.301	0.892	0.95	0.376	0.281	0.256	0.235	0.215	0.237	0.218	0.127
RERF-LC-KJ	0.858	0.798	0.776	0.682	0.656	0.988	0.668	0.76	0.591	0.508	0.868	0.839	0.731	0.758	0.704	0.448	0.38	0.391	0.419	0.295
NCI-H661	0.998	0.801	0.811	0.833	0.85	1	0.838	0.928	0.806	0.394	0.466	0.608	0.444	0.444	0.323	0.271	0.277	0.303	0.251	0.248
HCC-366	0.638	0.592	0.751	0.608	0.474	0.729	0.55	0.664	0.539	0.233	1.16	1.16	0.79	1	0.0272	0.618	0.642	0.656	0.603	0.48
SK-LU-1	0.182	0.203	0.189	0.164	0.224	0.217	0.189	0.209	0.183	0.173	0.732	0.805	0.473	0.402	0.2	0.46	0.488	0.293	0.329	0.163
A-427	0.841	0.721	0.644	0.722	0.708	0.752	0.621	0.795	0.745	0.454	1.03	1.06	1	0.711	0.225	0.339	0.3	0.23	0.225	0.149
SW 1573	0.564	0.516	0.475	0.429	0.449	0.669	0.375	0.476	0.361	0.336	1.33	1.16	1.02	0.767	0.738	0.421	0.439	0.214	0.28	0.0937
